Reference: US4960790A, “Derivatives of taxol, pharmaceutical compositions thereof and methods for the preparation thereof” (University of Kansas, priority 1989, dated 1990)
Where a name gives a salt, the structure may show the parent alone. Read-outs that look alike come from different tables or passages of the source.

Columns and labels:
[1] = Solubility; assay type: physicochemical
[2] = tested on: human mammary carcinoma MX-1 xenograft; test: Subrenal capsule human mammary carcinoma MX-1 xenograft in mice; conditions: for ANML BODY WT DIFF (test minus control) / TEST BODY WT CHG / # OF ANMLS ALIVE CALC/TOTAL / Average tumor WEIGHT CHANGE (DELTA) / Average tumor weight, FINAL: Q4D; for ANML BODY WT DIFF (test minus control) / TEST BODY WT CHG: Day 1 to 11; for # OF ANMLS ALIVE CALC/TOTAL / Average tumor WEIGHT CHANGE (DELTA) / Average tumor weight, FINAL / % T/C: Day 11; for % T/C: Q4D Days 1, 5, 9
Text: The procedures followed are those described at pages 23-24 of NIH Publication No. 84-2635, In Vivo Cancer Model (February 1984).
In the procedure, test groups of mice (6 mice per test group) and control groups of 12 mice per group are utilized. A tumor fragment (human mammary carcinoma MX-1 xenograft), is implanted under the membranous covering of the kidney of each mouse.
Day 0: Anesthetize animals. Record body weight (Weigh Day 1). Implant tumor, measure and record. Randomize animals after they recover from the anesthetic. Run bacterial cultures. Determine solubilities of test agent. Record deaths daily.
Day 1: Check cultures. Discard experiment if contaminated. Prepare test materials. Initiate test agent injections (in the nape of the neck) based on individual body weight. Treatment is Q4D on Days 1, 5, and 9. Prepare test agent fresh on each injection day and administer based on individual body weight for that day.
Days 5 and 9: Prepare test agent fresh on each injection day and administer based on individual body weight for that day.
Day 11: End and evaluate experiment. Record body weights (Weigh Day 2). Measure tumor in OMU's (Ocular Micrometer Unit--10 OMU's=1 mm) and record.
The parameter measured is mean tumor weight change (delta) based on length and width measurements in millimeters. Mean animal body weights are computed for Day 1 and Day 11, compute T/C for all test groups with>65% survivors on Day 11. An excessive body weight change difference (test minus control) may also be used in evaluating toxicity. The dimensions are measured and recorded in Ocular Micrometer Units (OMU). A computer is utilized for the following:
(1) Converts OMU's to millimeters (mm).
(2) Calculates tumor weights (mgs) from tumor dimensions (mm×mm) following the formula for the volume of a prolate ellipsoid: [formula] (3) Calculates the change (delta) in mean tumor weight for each group of mice:
Change in Mean Tumor Weight=Mean Tumor WeightFINAL -Mean Tumor WeightINITIAL.
(4) Calculates the change (delta) in mean tumor weight for test (T) and control (C) groups.
(5) Calculates T/C% for all test groups with>65% survivors on Final Evaluation Day: [formula]

[3] = Chemical stability in buffer or water; assay type: physicochemical
Description: The compound was subjected to stability studies according to the following procedures.
(§1) Stabilities of derivatives at various pHs were studied at 25° and 37°. The plasma studies were conducted at 37° in rat and human plasma. Human plasma was obtained from Watkins Hospital and rat plasma was obtained from the Animal Care Unit of the University of Kansas. The derivative concentration used was around 20-25 μg/ml. A stock solution of the compound was prepared at 0.8-1.0 mg/mL and was added to plasma to give the desired concentration (20-25 μg/mL). One hundred microliter samples were removed and was quenched with 250 uL. acetonitrile and centrifuged to precipitate the plasma proteins. The degradation kinetics were studied by HPLC plotting peak area vs. time. The t90 and t50 were calculated. Both chemical and plasma studies were followed by high performance liquid chromatography using a RP-8 column (15 cm) and a precolumn (5 cm). The detector was set at 227 nm. The mobile phase consisted of 0.02M acetate (pH 5): acetonitrile 50:50 or 35:65 and the flow rate ranged from 1-1.5 mL/min or the same solvents containing 0.001M tetrabutylammoniumydrogensulphate and a flow rate of 1 mL/min.
The identity of this peak was further confirmed by the degradation studies of the new derivatives. Thus, 2'(DMG) taxol was incubated with water at 37° and the product was concentrated and purified by preparative TLC. The product after purification was analyzed by HPLC and spectroscopic methods.

[4] = Plasma stability, human plasma; assay type: in vitro ADME; conditions: 37° C.
Description: as §1, with “The derivative concentration used was around 20-25 μg/ml. A stock solution of the compound was prepared at 0.8-1.0 mg/mL and was added to plasma to give the desired concentration (20-25 μg/mL).” left out

[5] = tested on: B-16 melanoma cells; test: In vitro B16 melanoma cell proliferation; assay type: cell-based; conditions: rank order
Description: These studies were conducted according to standard procedures as described in Donoso and Himes, Cancer Biochem. Biophysics, vol. 7, (1984), p. 133.

[6] = tested on: microtubule assembly; test: In vitro microtubule assembly kinetics; assay type: biochemical; conditions: rank order
Description: (A) In vitro Microtubule Assembly Kinetics Studies
The microtubule assembly study was conducted using both 2' and 7-derivatives according to the in vitro procedures disclosed, for example, in Mellado et al., Biochemical and Biophysical Research Communications, Vol. 124, No. 2 (1984), pp. 329-336; Magri et al., J. Org. Chem., 51, 797-802 (1986); and Parness et al., Biochemical and Biophysical Research Communications, Vol. 105, No. 3, pp. 1082-1091 (1982).

[7] = tested on: microtubules; conditions: in vitro / cells, in words; cited from earlier work

CCN(CC)CCC(=O)O[C@@H](C(=O)O[C@H]1C[C@@]2(O)[C@@H](OC(=O)c3ccccc3)[C@@H]3[C@]4(OC(C)=O)CO[C@@H]4C[C@H](O)[C@@]3(C)C(=O)[C@H](OC(C)=O)C(=C1C)C2(C)C)[C@@H](NC(=O)c1ccccc1)c1ccccc1 [Compound 3, HCl salt of 2'-(3-(N,N-diethylamino)propionyl)taxol]
solubility [1]: ~ 0.8 mg/mL
ANML BODY WT DIFF (test minus control) ([2]; Table 2, 4.50 mg/kg): 1.2
TEST BODY WT CHG ([2]; Table 2, 4.50 mg/kg): -2.8
# OF ANMLS ALIVE CALC/TOTAL ([2]; Table 2, 4.50 mg/kg): 5/5
Average tumor WEIGHT CHANGE (DELTA) ([2]; Table 2, 4.50 mg/kg): -.78 MGS
Average tumor weight, FINAL ([2]; Table 2, 4.50 mg/kg): .00 MGS
ANML BODY WT DIFF (test minus control) ([2]; Table 2, 9.00 mg/kg): 1.3
TEST BODY WT CHG ([2]; Table 2, 9.00 mg/kg): -2.7
# OF ANMLS ALIVE CALC/TOTAL ([2]; Table 2, 9.00 mg/kg): 5/5
Average tumor WEIGHT CHANGE (DELTA) ([2]; Table 2, 9.00 mg/kg): -.87 MGS
Average tumor weight, FINAL ([2]; Table 2, 9.00 mg/kg): .00 MGS
ANML BODY WT DIFF (test minus control) ([2]; Table 2, 18.00 mg/kg): .7
TEST BODY WT CHG ([2]; Table 2, 18.00 mg/kg): -3.3
# OF ANMLS ALIVE CALC/TOTAL ([2]; Table 2, 18.00 mg/kg): 3/4
Average tumor WEIGHT CHANGE (DELTA) ([2]; Table 2, 18.00 mg/kg): -.82 MGS
Average tumor weight, FINAL ([2]; Table 2, 18.00 mg/kg): .00 MGS
% T/C ([2]; Table 2, 36.00 mg/kg): TOX
# OF ANMLS ALIVE CALC/TOTAL ([2]; Table 2, 36.00 mg/kg): 0/5
half-life ([3]; 0.02 M Acetate, 0.01 mg/mL, pH 3.5, 25° C.): 439 h
half-life ([3]; 0.02 M Phosphate, 0.02 mg/mL, pH 7.4, 25° C.): 0.25 h
half-life ([4]; Human plasma): 0.07 h

CCN(CC)CCC(=O)O[C@@H](C(=O)O[C@H]1C[C@@]2(O)[C@@H](OC(=O)c3ccccc3)[C@@H]3[C@]4(OC(C)=O)CO[C@@H]4C[C@H](O)[C@@]3(C)C(=O)[C@H](OC(C)=O)C(=C1C)C2(C)C)[C@@H](NC(=O)c1ccccc1)c1ccccc1 [Compound 4, Methanesulphonic acid salt of 2'(N,N-diethylaminopropionyl)taxol]
solubility [1]: > 10000 µg/mL
half-life ([3]; 0.02 M acetate, pH 4.5, 25° C.): 305 h
half-life ([3]; 0.02 M acetate, pH 5.5, 25° C.): 20.7 h

CC(=O)O[C@H]1C(=O)[C@]2(C)[C@@H](OC(=O)CN(C)C)C[C@H]3OC[C@@]3(OC(C)=O)[C@H]2[C@H](OC(=O)c2ccccc2)[C@]2(O)C[C@H](OC(=O)[C@H](O)[C@@H](NC(=O)c3ccccc3)c3ccccc3)C(C)=C1C2(C)C [Compound 7, 7-(N,N-Dimethylglycyl)Taxol]
Order of effectiveness in B-16 melanoma cell proliferation study [5]: taxol>2'-(N,N-dimethylglycyl)taxol>2'-(N,N-diethylaminopropionyl)taxol>7-(N,N-dimethylglycyl)taxol
Ability to assemble microtubules (order) [6]: taxol >7-(N,N-dimethylglycyl)taxol(11)>2'(N,N-diethylaminopropionyl)taxol(8)>2'(N,N-dimethylglycyl)taxol(2)
% T/C ([2]; Table 2, 4.13 mg/kg): 34%
ANML BODY WT DIFF (test minus control) ([2]; Table 2, 4.13 mg/kg): -.5
TEST BODY WT CHG ([2]; Table 2, 4.13 mg/kg): -4.5
# OF ANMLS ALIVE CALC/TOTAL ([2]; Table 2, 4.13 mg/kg): 4/5
Average tumor WEIGHT CHANGE (DELTA) ([2]; Table 2, 4.13 mg/kg): 4.92 MGS
Average tumor weight, FINAL ([2]; Table 2, 4.13 mg/kg): 5.66 MGS
% T/C ([2]; Table 2, 8.25 mg/kg): 23%
ANML BODY WT DIFF (test minus control) ([2]; Table 2, 8.25 mg/kg): .1
TEST BODY WT CHG ([2]; Table 2, 8.25 mg/kg): -3.9
# OF ANMLS ALIVE CALC/TOTAL ([2]; Table 2, 8.25 mg/kg): 4/4
Average tumor WEIGHT CHANGE (DELTA) ([2]; Table 2, 8.25 mg/kg): 3.38 MGS
Average tumor weight, FINAL ([2]; Table 2, 8.25 mg/kg): 4.19 MGS
% T/C ([2]; Table 2, 16.50 mg/kg): -93%
ANML BODY WT DIFF (test minus control) ([2]; Table 2, 16.50 mg/kg): -1.7
TEST BODY WT CHG ([2]; Table 2, 16.50 mg/kg): -5.7
# OF ANMLS ALIVE CALC/TOTAL ([2]; Table 2, 16.50 mg/kg): 3/4
Average tumor WEIGHT CHANGE (DELTA) ([2]; Table 2, 16.50 mg/kg): -.55 MGS
Average tumor weight, FINAL ([2]; Table 2, 16.50 mg/kg): .04 MGS
ANML BODY WT DIFF (test minus control) ([2]; Table 2, 33.00 mg/kg): 1.3
TEST BODY WT CHG ([2]; Table 2, 33.00 mg/kg): -2.7
# OF ANMLS ALIVE CALC/TOTAL ([2]; Table 2, 33.00 mg/kg): 4/5
Average tumor WEIGHT CHANGE (DELTA) ([2]; Table 2, 33.00 mg/kg): -.74 MGS
Average tumor weight, FINAL ([2]; Table 2, 33.00 mg/kg): .00 MGS

CC(=O)O[C@H]1C(=O)[C@]2(C)[C@@H](OC(=O)[C@H](C)N)C[C@H]3OC[C@@]3(OC(C)=O)[C@H]2[C@H](OC(=O)c2ccccc2)[C@]2(O)C[C@H](OC(=O)[C@H](O)[C@@H](NC(=O)c3ccccc3)c3ccccc3)C(C)=C1C2(C)C [Methanesulphonic acid salt of 7-(alanyl)taxol]
solubility ([1]; read-out: Solubility): > 2000 µg/mL
half-life ([4]; human plasma (20 μg/mL)): 11.9 h

COc1cc2c(c(OC)c1OC)-c1ccc(OC)c(=O)cc1[C@@H](NC(C)=O)CC2 [colchicine]
Effect on microtubules [7]: depolymerize microtubules in cells

CC(=O)O[C@H]1C(=O)[C@]2(C)[C@@H](OC(=O)CN(C)C)C[C@H]3OC[C@@]3(OC(C)=O)[C@H]2[C@H](OC(=O)c2ccccc2)[C@]2(O)C[C@H](OC(=O)[C@H](OC(=O)CN(C)C)[C@@H](NC(=O)c3ccccc3)c3ccccc3)C(C)=C1C2(C)C [dimethanesulphonic acid salt of 2'7-(N,N-dimethylglycyl)taxol]
solubility ([1]; read-out: Solubility): > 10000 µg/mL

CCN(CC)CCC(=O)O[C@@H](C(=O)O[C@H]1C[C@@]2(O)[C@@H](OC(=O)c3ccccc3)[C@@H]3[C@]4(OC(C)=O)CO[C@@H]4C[C@H](O)[C@@]3(C)C(=O)[C@H](OC(C)=O)C(=C1C)C2(C)C)[C@@H](NC(=O)c1ccccc1)c1ccccc1 [preferred compound 1, 2'(N,N-diethylaminopropionyl)taxol]
Order of effectiveness in B-16 melanoma cell proliferation study [5]: taxol>2'-(N,N-dimethylglycyl)taxol>2'-(N,N-diethylaminopropionyl)taxol>7-(N,N-dimethylglycyl)taxol
Ability to assemble microtubules (order) [6]: taxol >7-(N,N-dimethylglycyl)taxol(11)>2'(N,N-diethylaminopropionyl)taxol(8)>2'(N,N-dimethylglycyl)taxol(2)

CC[C@]1(O)C[C@@H]2CN(CCc3c([nH]c4ccccc34)[C@@](C(=O)OC)(c3cc4c(cc3OC)N(C)[C@H]3[C@@](O)(C(=O)OC)[C@H](OC(C)=O)[C@]5(CC)C=CCN6CC[C@]43[C@@H]65)C2)C1 [vinblastine]
Effect on microtubules [7]: inhibit microtubule assembly and to depolymerize steady state microtubules

CC[C@]1(O)C[C@H]2CN(CCc3c([nH]c4ccccc34)[C@@](C(=O)OC)(c3cc4c(cc3OC)N(C=O)[C@H]3[C@@](O)(C(=O)OC)[C@H](OC(C)=O)[C@]5(CC)C=CCN6CC[C@]43[C@@H]65)C2)C1 [vincristine]
Effect on microtubules [7]: inhibit microtubule assembly and to depolymerize steady state microtubules
